Measured values taken from ChEMBL document CHEMBL1201862, “PubChem BioAssay data set” (2004).
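Growth conditions: 96-well plates. Treatment: test compound, 48 hours, 5 concentrations. Analysis: linear interpolation between bracketing concentrations; unreached endpoints set to highest concentration. Abbreviation: GI50, concentration required for 50% inhibition of growth.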 The source made the active and inactive calls. Cut-off read from the data, not from the text of the source: active = GI50 up to about 1.1 µM and inactive = higher.

Columns and labels:
Test in all cases: growth of human tumour cells (NCI), 48 h
786-0 = test system: 786-0
A498 = test system: A498
A549 = test system: A549
BT-549 = test system: BT-549
CAKI-1 = test system: CAKI-1
CCRF-CEM = test system: CCRF-CEM
COLO 205 = test system: COLO 205
DU-145 = test system: DU-145
EKVX = test system: EKVX
HCC 2998 = test system: HCC 2998
HCT-116 = test system: HCT-116
HCT-15 = test system: HCT-15
HL-60 = test system: HL-60
HT-29 = test system: HT-29
Hs-578T = test system: Hs-578T
K562 = test system: K562
KM12 = test system: KM12
LOX IMVI = test system: LOX IMVI
M14 = test system: M14
MCF7 = test system: MCF7
MDA-MB-231 = test system: MDA-MB-231
MDA-MB-435 = test system: MDA-MB-435
MDA-N = test system: MDA-N
MOLT-4 = test system: MOLT-4
Malme-3M = test system: Malme-3M
NCI-H226 = test system: NCI-H226
NCI-H23 = test system: NCI-H23
NCI-H460 = test system: NCI-H460
NCI-H522 = test system: NCI-H522
NCI/ADR-RES = test system: NCI/ADR-RES
OVCAR-3 = test system: OVCAR-3
OVCAR-4 = test system: OVCAR-4
OVCAR-5 = test system: OVCAR-5
OVCAR-8 = test system: OVCAR-8
PC-3 = test system: PC-3
RPMI-8226 = test system: RPMI-8226
RXF 393 = test system: RXF 393
SF-268 = test system: SF-268
SF-539 = test system: SF-539
SK-MEL-28 = test system: SK-MEL-28
SK-MEL-2 = test system: SK-MEL-2
SK-MEL-5 = test system: SK-MEL-5
SK-OV-3 = test system: SK-OV-3
SN12C = test system: SN12C
SNB-19 = test system: SNB-19
SNB-75 = test system: SNB-75
SR = test system: SR
SW-620 = test system: SW-620
T47D = test system: T47D
TK-10 = test system: TK-10
U-251 = test system: U-251
UACC-257 = test system: UACC-257
UACC-62 = test system: UACC-62
UO-31 = test system: UO-31
ACHN = test system: ACHN
HOP-62 = test system: HOP-62
IGROV-1 = test system: IGROV-1
SF-295 = test system: SF-295

Measured: GI50

CS/C(Nc1ccccc1)=C1\C(=O)N(c2ccccc2)N=C1C
inactive: 786-0 > 100 µM | A498 95.7 µM | A549 > 100 µM | BT-549 > 100 µM | CAKI-1 52 µM | CCRF-CEM > 100 µM | COLO 205 > 100 µM | DU-145 > 100 µM | EKVX > 100 µM | HCC 2998 > 100 µM | HCT-116 > 100 µM | HL-60 > 100 µM | HT-29 > 100 µM | Hs-578T > 100 µM | K562 > 100 µM | KM12 > 100 µM | LOX IMVI > 100 µM | M14 > 100 µM | MCF7 > 100 µM | MDA-MB-231 > 100 µM | MDA-MB-435 > 100 µM | MDA-N > 100 µM | MOLT-4 > 100 µM | Malme-3M > 100 µM | NCI-H226 > 100 µM | NCI-H23 > 100 µM | NCI-H460 > 100 µM | NCI-H522 35.1 µM | NCI/ADR-RES > 100 µM | OVCAR-3 > 100 µM | OVCAR-4 > 100 µM | OVCAR-5 > 100 µM | OVCAR-8 > 100 µM | PC-3 > 100 µM | RPMI-8226 > 100 µM | RXF 393 > 100 µM | SF-268 > 100 µM | SF-539 > 100 µM | SK-MEL-28 > 100 µM | SK-MEL-2 > 100 µM | SK-MEL-5 > 100 µM | SK-OV-3 > 100 µM | SN12C > 100 µM | SNB-19 > 100 µM | SNB-75 > 100 µM | SR > 100 µM | SW-620 > 100 µM | T47D > 100 µM | TK-10 > 100 µM | U-251 > 100 µM | UACC-257 > 100 µM | UACC-62 > 100 µM | UO-31 > 100 µM
> 100 µM: HCT-15

CC(=O)OCC(OC(C)=O)C(OC(C)=O)C(OC(C)=O)C(C=NN(C(C)=O)S(=O)(=O)c1ccc(/C=C2\NC(=O)N(C)C2=O)cc1)OC(C)=O (stereo not drawn)
inactive: 786-0 22.1 µM | A498 59.7 µM | A549 56 µM | ACHN 34.5 µM | BT-549 33.9 µM | CAKI-1 40.2 µM | CCRF-CEM 13 µM | COLO 205 26.2 µM | DU-145 33 µM | EKVX 43 µM | HCC 2998 30.5 µM | HCT-116 16.9 µM | HOP-62 85.1 µM | HT-29 34.9 µM | Hs-578T 32.9 µM | IGROV-1 31.6 µM | K562 21.4 µM | KM12 42.4 µM | LOX IMVI 21.8 µM | M14 69.2 µM | MCF7 40.1 µM | MDA-MB-231 36.1 µM | MDA-MB-435 36.3 µM | MDA-N 35.7 µM | Malme-3M 25.5 µM | NCI-H226 38.7 µM | NCI-H23 34.5 µM | NCI-H460 22.1 µM | NCI-H522 23.7 µM | NCI/ADR-RES > 100 µM | OVCAR-3 41.4 µM | OVCAR-4 53.5 µM | OVCAR-5 83.2 µM | OVCAR-8 25.6 µM | PC-3 40.1 µM | RPMI-8226 24.2 µM | RXF 393 20.5 µM | SF-268 30.1 µM | SF-295 95.9 µM | SK-MEL-2 31.5 µM | SK-MEL-5 30.1 µM | SK-OV-3 48.5 µM | SN12C 27.8 µM | SNB-19 45 µM | SNB-75 33.7 µM | SR 23.4 µM | SW-620 34.4 µM | T47D 27.1 µM | TK-10 3.35 µM | U-251 32.1 µM | UACC-257 43.9 µM | UACC-62 13.6 µM | UO-31 57.5 µM
25.4 µM: HCT-15
